The numbers were not newly measured in US11207270B2, “Controlled release dosage forms for high dose, water soluble and hygroscopic drug substances” (priority 2010, dated 2021), which cites them from elsewhere.

Molecules are shown by their SMILES.

Data set [1] concerns patients suffering from disorders of disturbed sleep, including narcolepsy. Particulars: human, in vivo.
Data set [2] concerns non-narcoleptic patients with fibromyalgia.
For data set [3] the following is noted: given orally, in man.
Data set [4] relates to patients with hyperkinetic movement disorders including ethanol responsive myoclonus and essential tremor. The settings on record: 5 patients.

Regarding `O=C(O)CCCO` [GHB, gamma-hydroxy butyrate], in data set [1], the “Stage 3-4 (slow wave) sleep” value is “increase”, the nocturnal awakenings entry is “decrease” and the “total nocturnal sleep time” value is reported as “increase”. Also, in data set [2] (before and after treatment), the “estimates of overall wellness” value is recorded as “significant improvement”. In addition, in data set [2] (over all 4 weeks of treatment compared to baseline), the “subjective assessments of levels of pain and fatigue” value was “significant improvements”. Besides, the plasma levels entry (immediate release formulation, dose between about 2.25 g and 4.5 g, within 4 hours of ingestion) is given as “below 10 ug/mL”. Moreover, where the note is “two separate immediate release doses, over a six hour period”, the Cmax/Cmin ratio entry is on record as “greater than 4”.

With `O=C([O-])CCCO.[Na+]` [sodium oxybate], the plasma half-life result in data set [3] is “about 45 minutes”. Moreover, in data set [4], the “blinded ratings of ethanol responsive myoclonus and tremor” value is given as “dose-dependent improvements”; the tolerability result was “tolerated at doses that provided clinical benefit”.
